Test results reported in patent US12678490B2, “Pharmaceutical combinations comprising insulin and at least an agent selected from meloxicam, bromfenac sodium, acetylsalicylic acid, salicyclic acid and paracetamol” (Eli Lilly and Company, priority 2017, dated 2026).

Tests used:
plasma glucose = assay: Pre-clinical in vivo CSII model, local or oral dexamethasone with insulin lispro bolus; design: species or system Yucatan mini pigs; details: for Baseline-adjusted area under the curve for plasma glucose over the 6 hours following an insulin bolus: 0.15 U/kg U100 insulin lispro bolus, mean ± SEM; for improving infusion site viability: local delivery, 0.25 mg/h (6 mg/d)
[1] = Insulin lispro co-formulation stability, main peak loss and HMWP growth by analytical RP-HPLC; type: physicochemical; details: co-formulated with insulin lispro, 37° C.
Method: Two separate formulations are prepared as described above with 20 mM acetylsalicylic acid or 90 mM paracetamol; however, the m-cresol is excluded from the formulation. All samples are adjusted with water to achieve the final concentrations. […] All samples are filtered using 0.22 um syringe filter ([…]). […] The samples are visibly inspected for particulate or precipitation throughout study. Insulin lispro main peak loss and HMWP growth are tracked over time using HPLC. […] The UV detector is set to 214 nm wavelength, column temperature to 40° C., flowrate to 1 mL/min, and injection volume to 5 uL of each formulation. […] The data is collected and slope analysis of rate of change per day is performed using Y by X plots using commercial software.

Structure (SMILES) | Baseline-adjusted area under the curve for plasma glucose over the 6 hours following an insulin bolus (plasma glucose; Oral: 25 uL/h insulin placebo + twice daily oral 3 mg dexamethasone, day 0) | Baseline-adjusted area under the curve for plasma glucose over the 6 hours following an insulin bolus (plasma glucose; Oral: 25 uL/h insulin placebo + twice daily oral 3 mg dexamethasone, day 3) | Baseline-adjusted area under the curve for plasma glucose over the 6 hours following an insulin bolus (plasma glucose; Oral: 25 uL/h insulin placebo + twice daily oral 3 mg dexamethasone, day 5) | Baseline-adjusted area under the curve for plasma glucose over the 6 hours following an insulin bolus (plasma glucose; Oral: 25 uL/h insulin placebo + twice daily oral 3 mg dexamethasone, day 7) | Baseline-adjusted area under the curve for plasma glucose over the 6 hours following an insulin bolus (plasma glucose; Oral: 25 uL/h insulin placebo + twice daily oral 3 mg dexamethasone, day 10) | Baseline-adjusted area under the curve for plasma glucose over the 6 hours following an insulin bolus (plasma glucose; Subcutaneous: continuous infusion of 0.25 mg/h dexamethasone, day 0) | Baseline-adjusted area under the curve for plasma glucose over the 6 hours following an insulin bolus (plasma glucose; Subcutaneous: continuous infusion of 0.25 mg/h dexamethasone, day 3) | Baseline-adjusted area under the curve for plasma glucose over the 6 hours following an insulin bolus (plasma glucose; Subcutaneous: continuous infusion of 0.25 mg/h dexamethasone, day 5) | Baseline-adjusted area under the curve for plasma glucose over the 6 hours following an insulin bolus (plasma glucose; Subcutaneous: continuous infusion of 0.25 mg/h dexamethasone, day 7) | Baseline-adjusted area under the curve for plasma glucose over the 6 hours following an insulin bolus (plasma glucose; Subcutaneous: continuous infusion of 0.25 mg/h dexamethasone, day 10) | improving infusion site viability (plasma glucose) | improving infusion site viability (plasma glucose; listed as dexamethosone) | effect on infusion site viability (plasma glucose; orally delivered) | impact on insulin lispro stability [1]
C[C@@H]1C[C@H]2[C@@H]3CCC4=CC(=O)C=C[C@]4(C)[C@@]3(F)[C@@H](O)C[C@]2(C)[C@@]1(O)C(=O)CO [Dexamethasone, (8S,9R,10S,11S,13S,14S,16R,17R)-9-fluoro-11,17-dihydroxy-17-(2-hydroxyacetyl)-10,13,16-trimethyl-6,7,8,11,12,14,15,16-octahydrocyclopenta[a]phenanthren-3-one] | −14218 ± 754 | −5265 ± 2130 | −8109 ± 987 | −7750 ± 1491 | −4266 ± 1551 | −16700 ± 2027 | −12591 ± 873 | −12297 ± 755 | −7149 ± 1555 | −4893 ± 775 | up to 5 days | 5 days | no effect | 
CC(=O)Oc1ccccc1C(=O)O [acetylsalicylic acid, 2-acetoxybenzoic acid] |  |  |  |  |  |  |  |  |  |  |  |  |  | minimal impact on insulin lispro stability
CC(=O)Nc1ccc(O)cc1 [paracetamol, N-(4-hydroxypehnyl)acetamide] |  |  |  |  |  |  |  |  |  |  |  |  |  | minimal impact on insulin lispro stability
